Results from PubChem BioAssay AID1996.
Converted amounts (≈) assume the structure as drawn.

Details: buffer; pH 7.4; 200.0 µM

Structure (SMILES) | solubility kinetic
COC(=O)CCC(=O)NNC(=O)c1ccc([N+](=O)[O-])cc1 | > 44.3 µg/mL
CCC(C)[C@H](NC(=O)Nc1ccc2c(c1)OCCO2)C(=O)OC (stereo not given in full) | > 48.4 µg/mL
O=C(NC12CC3CC(CC(C3)C1)C2)N1CCN(C2CCCCC2)CC1 | 42.4 µg/mL (≈ 123 µM)
COc1cccc(NC(=O)CN(C)C(=O)[C@@H]2CCCN2C(=O)c2cccs2)c1 | > 60.2 µg/mL
Cc1ccc(NC(=O)c2cnccn2)cc1S(=O)(=O)N1CCCCCC1 | 5.4 µg/mL (≈ 14.4 µM)
NC(=O)CSc1nc2cc(S(=O)(=O)N3CCOCC3)ccc2o1 | > 53.6 µg/mL
O=C(OCC(=O)N1CCCC1=O)c1cc(Cl)ccc1O | > 44.7 µg/mL
CC(=O)c1c(C)[nH]c(C(=O)Nc2cccc(S(=O)(=O)N3CCCC3)c2)c1C | 7 µg/mL (≈ 18 µM)
O=C(NC1CCS(=O)(=O)C1)c1ccc(Br)s1 (stereo not given) | > 48.6 µg/mL
CN(C)c1nc(-c2ccccc2)ns1 | 12.5 µg/mL (≈ 60.9 µM)
CC(=O)N1CCC(C(=O)Nc2ccc3c(c2)CCC3)CC1 | > 43 µg/mL
CCOc1ccc2c(c1)[nH]c(=S)n2C | > 31.2 µg/mL
CN(C)CCNC(=S)Nc1ccc(F)c(F)c1F | > 41.6 µg/mL
O=C(CCSCc1ccccc1Cl)NC1CCCCC1 | 8.1 µg/mL (≈ 26 µM)
Cc1ccc(-c2c(C#N)c(N)nc3c2CCCC3)o1 | 4.1 µg/mL (≈ 16.2 µM)
Cc1ccc2c(c1)sc1nc(=O)ccn12 | > 32.4 µg/mL
O=C(CC1CCCCC1)NCc1ccco1 | > 33.2 µg/mL
CCOc1ccc(C2NC(=O)Cc3cc(OC)c(OC)cc32)cc1 (stereo not given) | > 49.1 µg/mL
CC(C)c1ccc(OCC(=O)NC2=NCCS2)cc1 | 15.8 µg/mL (≈ 56.8 µM)
Cc1ccc(C(=O)CCC(=O)NC2=NCCS2)cc1 | 10.8 µg/mL (≈ 39.1 µM)
CN1CCN(CCOc2ccc(-c3ccccc3)cc2)CC1.Cl | > 49.9 µg/mL
CN1CCN(C(=O)c2cc(Br)cn2C)CC1 | > 42.9 µg/mL
COc1cc(OC)cc(C(=O)NCCCCNC(=O)c2cc(OC)cc(OC)c2)c1 | 1.1 µg/mL (≈ 2.64 µM)
COc1ccc(CCC(C)NCc2ccc(F)cc2)cc1 (stereo not given) | 31.8 µg/mL (≈ 111 µM)
Cc1cccc(C)c1OCc1cc(C(=O)NC2CCC(O)CC2)no1 (stereo not given) | 19.4 µg/mL (≈ 56.3 µM)
CS(=O)(=O)c1ccc2nc(NC(=O)C3CC3)sc2c1 | 25.3 µg/mL (≈ 85.4 µM)
CCc1cccc2c1NC1(CCCC1)CC2C.Cl (stereo not given) | < 0.6 µg/mL
CCCCc1c(C)[nH]c2nc3ccccc3n2c1=O | < 0.2 µg/mL
COc1cccc(CNc2ccc(S(=O)(=O)N3CCCC3)cn2)c1 | 46 µg/mL (≈ 132 µM)
CCCn1c(N2CCN(C(=O)/C=C/C(=O)O)CC2)nc2ccccc21 | > 51.4 µg/mL

Further lines, results first:

solubility kinetic | Structure (SMILES)
4 µg/mL (≈ 11.5 µM) | O=C(COC(=O)c1ccc2ncsc2c1)Nc1ccccc1Cl
2 µg/mL (≈ 6.16 µM) | COc1ccc(NC(=O)Cn2c([N+](=O)[O-])cnc2C)cc1Cl
> 46.4 µg/mL | O=C(O)CC(CN1C(=O)c2ccccc2C1=O)c1ccccc1 (stereo not given)
> 44.1 µg/mL | COc1cccc(/C=N/NC(=O)c2ccc3nc[nH]c3c2)c1
43 µg/mL (≈ 148 µM) | Cc1nc2ccccc2cc1C(=O)N(C)Cc1ccccc1
7.8 µg/mL (≈ 19.2 µM) | COc1ccc(C(=O)COC(=O)[C@@H](NS(=O)(=O)c2ccccc2)C(C)C)cc1
> 35.4 µg/mL | Cc1ccccc1Cn1c(C)nc2ccccc21
> 45 µg/mL | O=C(O)c1ccccc1Nc1ccc2nonc2c1[N+](=O)[O-]
2.6 µg/mL (≈ 5.82 µM) | COc1ccccc1NC(=O)COC(=O)c1ccc(S(=O)(=O)N2CCCCCC2)cc1
12 µg/mL (≈ 36.8 µM) | Cc1c(O)ccc(C(=O)CN2CCN(c3ccccc3)CC2)c1O
15.8 µg/mL (≈ 54 µM) | COc1ccccc1CNC(=O)c1ccc2ccccc2n1
0.5 µg/mL (≈ 1.39 µM) | CSc1nc2cc(Oc3cccc(Cl)c3Cl)c(Cl)cc2[nH]1
2.7 µg/mL (≈ 8.22 µM) | CCOC(=O)c1cc(C(=O)NC(C)c2ccccc2)c(C)[nH]c1=O (stereo not given)
12.4 µg/mL (≈ 39.3 µM) | O=C(Cc1ccc(Cl)cc1Cl)Nc1ccncc1Cl
3 µg/mL (≈ 8.84 µM) | Cc1ccccc1NC(=O)CSc1nc2ccccc2c(=O)n1C
4.4 µg/mL (≈ 13 µM) | Cc1c(C(=O)OCC(=O)NC(C)c2ccccc2)oc2ccccc12 (stereo not given)
28.6 µg/mL (≈ 86.6 µM) | CCC(=O)Nc1ccc(NCc2ccc(-c3ccccc3)cc2)cc1
< 0.3 µg/mL | Cc1cc(C)cc(NC(=O)C(=S)NCc2ccccc2)c1
> 47.9 µg/mL | O=C(CCC(=O)c1ccccc1)Nc1ccccc1OC(F)F
> 52.4 µg/mL | CN(CC(=O)Nc1cccc([N+](=O)[O-])c1)S(=O)(=O)c1ccccc1
13.8 µg/mL (≈ 48 µM) | CCCCCCCn1c(NC(=O)CC)nc2ccccc21
0.2 µg/mL (≈ 0.672 µM) | Cc1c(Cl)ccc2c(C(N)=O)cc(-c3ccccn3)nc12
29.9 µg/mL | Cl.NCCC(=O)N1c2ccccc2Sc2ccccc21
> 54.1 µg/mL | CC(=O)c1cccc(S(=O)(=O)Nc2ccccc2N2CCOCC2)c1
> 49.6 µg/mL | Cc1cc(=O)[nH]c2ccc(S(=O)(=O)Nc3ccc(O)cc3)cc12
8.4 µg/mL (≈ 26.6 µM) | CSc1nsc(NC(=O)OCc2ccc(Cl)cc2)n1
> 52.4 µg/mL | COc1ccc(NC(=O)CN(C)C(=O)c2ccc3ccccc3n2)cc1
< 0.7 µg/mL | O=C(Nc1ccc(Cl)cc1Cl)c1cc2ccccc2o1
0.6 µg/mL (≈ 1.71 µM) | CC(=O)Nc1ccc(NC(=O)c2cc(=O)c3cc(C)c(C)cc3o2)cc1
33.9 µg/mL (≈ 116 µM) | COc1ccc(N=Cc2c(OC)ccc3ccccc23)cc1
